Data on 20 molecules can be found in patent publication US9650339B2, “Inhibitors of histone demethylases” (Gilead Sciences, Inc., priority 2013, dated 2017).

For test [1], the target named is T1, KDM6B (JMJD3) (Homo sapiens, UniProt O15054).
T1 construct: 1043-end; purchased BPS; host or cells: Bac (baculovirus system)
Description: Histone lysine demethylase AlphaLISA assay, KDM6B. Format: biochemical. Particulars: read-out: KDM6B HDME Inhibition IC50. Summed up:
(§1)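 Each enzyme was pre-incubated 10 min in buffer, then 10 min with compound in 3% DMSO solution. The reaction started with biotinylated histone H3 peptide substrate plus 25 μM L-ascorbate and 10 μM α-KG at room temperature. Detection used AlphaLISA acceptor beads, then streptavidin donor beads, in the dark.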

Test [2] concerns the target KDM6A (UTX) (Homo sapiens, UniProt O15550). Description: Histone lysine demethylase AlphaLISA assay, KDM6A. Format: biochemical. Particulars: read-out: KDM6A HDME Inhibition IC50. The method, boiled down: as §1
Test [3] has as its target T2, KDM5B (Homo sapiens, UniProt Q9UGL1).
T2 construct: (a.a. 1-752); host or cells: U2OS
T2 sequence (Q9UGL1 1-752): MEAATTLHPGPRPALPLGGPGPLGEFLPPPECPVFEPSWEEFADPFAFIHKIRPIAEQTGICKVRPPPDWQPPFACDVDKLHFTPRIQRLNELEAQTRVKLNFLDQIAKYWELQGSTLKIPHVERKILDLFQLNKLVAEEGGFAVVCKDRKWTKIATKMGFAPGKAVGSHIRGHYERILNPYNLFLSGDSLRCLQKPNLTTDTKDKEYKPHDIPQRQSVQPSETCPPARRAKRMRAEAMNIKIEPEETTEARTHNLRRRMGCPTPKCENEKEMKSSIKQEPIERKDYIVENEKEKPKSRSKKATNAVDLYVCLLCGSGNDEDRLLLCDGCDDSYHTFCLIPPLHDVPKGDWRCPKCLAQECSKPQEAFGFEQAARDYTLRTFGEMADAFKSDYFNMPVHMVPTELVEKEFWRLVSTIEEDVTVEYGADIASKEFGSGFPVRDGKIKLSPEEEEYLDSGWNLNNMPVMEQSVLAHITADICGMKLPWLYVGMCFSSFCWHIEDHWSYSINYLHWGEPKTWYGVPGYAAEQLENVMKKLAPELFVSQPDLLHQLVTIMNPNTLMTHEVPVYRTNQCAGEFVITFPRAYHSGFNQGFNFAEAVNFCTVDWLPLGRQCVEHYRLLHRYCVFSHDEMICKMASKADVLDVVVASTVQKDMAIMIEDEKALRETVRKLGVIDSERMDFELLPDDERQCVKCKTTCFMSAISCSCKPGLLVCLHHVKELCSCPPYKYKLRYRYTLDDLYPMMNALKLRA
Put plainly: Histone lysine demethylase immunofluorescence assay, U2OS cells transfected with KDM5B. The conditions noted are these: U2OS cells transfected with pCMVHA KDM5B; mark detected H3K4me2; 20 hours. It counts as cell-based. Summed up: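 U2OS cells were transiently transfected with HA-tagged demethylase and reseeded after 6 h into compound-containing DMEM/10% FBS for 20 h. Cells were fixed in formaldehyde and immunostained for HA and the relevant histone methyl mark, then imaged. IC50 is based on mean mark staining in HA+ transfected cells.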

Test [4] deals with T3, KDM2B (FBXL10) (Homo sapiens, UniProt Q8NHM5).
T3 sequence (Q8NHM5 1-650): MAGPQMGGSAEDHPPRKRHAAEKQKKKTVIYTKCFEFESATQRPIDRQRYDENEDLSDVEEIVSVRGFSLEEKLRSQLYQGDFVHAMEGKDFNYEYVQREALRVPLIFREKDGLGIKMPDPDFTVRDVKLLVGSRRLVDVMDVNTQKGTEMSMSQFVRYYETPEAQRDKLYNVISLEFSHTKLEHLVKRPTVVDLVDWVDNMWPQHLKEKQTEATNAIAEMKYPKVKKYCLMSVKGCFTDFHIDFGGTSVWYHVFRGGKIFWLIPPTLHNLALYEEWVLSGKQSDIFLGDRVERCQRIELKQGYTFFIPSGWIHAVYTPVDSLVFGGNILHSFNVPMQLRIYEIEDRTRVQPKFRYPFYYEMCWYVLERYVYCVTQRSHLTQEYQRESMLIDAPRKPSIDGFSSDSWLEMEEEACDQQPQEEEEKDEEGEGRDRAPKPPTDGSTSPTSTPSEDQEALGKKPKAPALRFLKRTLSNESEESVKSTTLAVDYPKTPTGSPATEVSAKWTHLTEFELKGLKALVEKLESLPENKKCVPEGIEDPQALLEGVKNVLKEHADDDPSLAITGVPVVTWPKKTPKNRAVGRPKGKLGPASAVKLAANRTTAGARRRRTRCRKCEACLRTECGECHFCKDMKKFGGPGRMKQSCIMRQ
Put plainly: Histone lysine demethylase AlphaLISA assay, KDM2B. It counts as biochemical. Particulars: read-out: KDM2B HDME Inhibition IC50. Summed up: as §1

T1 sequence (O15054 1043-1682 isoform O15054-1 limits assumed): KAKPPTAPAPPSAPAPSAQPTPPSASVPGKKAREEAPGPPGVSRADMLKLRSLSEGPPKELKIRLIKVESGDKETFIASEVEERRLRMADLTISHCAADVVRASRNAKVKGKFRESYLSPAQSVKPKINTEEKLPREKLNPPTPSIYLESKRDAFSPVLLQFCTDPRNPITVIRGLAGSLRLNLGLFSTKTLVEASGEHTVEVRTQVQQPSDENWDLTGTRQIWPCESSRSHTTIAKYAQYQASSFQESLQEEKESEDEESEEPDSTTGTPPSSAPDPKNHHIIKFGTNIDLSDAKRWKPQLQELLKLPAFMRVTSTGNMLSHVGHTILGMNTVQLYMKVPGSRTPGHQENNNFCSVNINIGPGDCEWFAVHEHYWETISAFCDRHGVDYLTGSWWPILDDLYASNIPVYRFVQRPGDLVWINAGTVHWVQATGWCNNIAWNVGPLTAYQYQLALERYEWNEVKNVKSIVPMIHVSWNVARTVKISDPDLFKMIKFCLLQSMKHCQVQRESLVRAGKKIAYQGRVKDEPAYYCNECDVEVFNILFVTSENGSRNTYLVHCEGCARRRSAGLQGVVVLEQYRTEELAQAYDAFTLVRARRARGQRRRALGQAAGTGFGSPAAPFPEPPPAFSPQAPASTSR
KDM6A (UTX), sequence (O15550 919-1401): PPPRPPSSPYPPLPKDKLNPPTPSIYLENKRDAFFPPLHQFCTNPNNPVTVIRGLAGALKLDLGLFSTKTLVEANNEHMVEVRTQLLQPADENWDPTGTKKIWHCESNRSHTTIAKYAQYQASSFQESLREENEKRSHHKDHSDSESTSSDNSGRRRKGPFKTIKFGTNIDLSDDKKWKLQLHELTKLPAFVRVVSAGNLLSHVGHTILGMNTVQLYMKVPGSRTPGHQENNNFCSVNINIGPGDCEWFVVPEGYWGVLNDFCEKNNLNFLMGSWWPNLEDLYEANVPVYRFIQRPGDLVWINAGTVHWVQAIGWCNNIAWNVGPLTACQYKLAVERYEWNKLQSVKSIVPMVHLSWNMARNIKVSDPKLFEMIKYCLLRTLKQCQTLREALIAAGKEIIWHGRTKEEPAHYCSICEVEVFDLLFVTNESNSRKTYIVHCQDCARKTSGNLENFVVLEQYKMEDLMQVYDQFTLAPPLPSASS

For the molecule `CCN(CCN(C)C)C(=O)CNCc1cc(CNC(=O)C(F)(F)F)ccn1` [Compound 25, N-[(2-{[({[2-(dimethylamino)ethyl]-(ethyl)carbamoyl}-methyl)amino]methyl}-pyrtdin-4-yl)methyl]-2,2,2-trifluoroacetamide], the IC50 in test [1] was greater than 2500 nM; in test [2], greater than 2500 nM; in test [3], less than 250 nM; in test [4], greater than 2500 nM.

In the case of `CN(C)C/C=C/CNCc1cc(/C=N/C2CC2)ccn1` [Compound 43, N-{[2-({[(2E)-4-(dimethylamino)but-2-en-1-yl]amino}-methyl)pyridin-4-yl]methylidene}-cyclopropanamine], the IC50 in test [1] was greater than 2500 nM; in test [2] it was greater than 2500 nM; in test [3] it was less than 250 nM; in test [4] it was greater than 2500 nM.

In the case of `CCN1CCCC1CNC(=O)CNCc1cc(C=O)ccn1` (centres unmarked) [Compound 104, N-[(1-ethylpyrrolidin-2-yl)methyl]-2-{[(4-formylpyridin-2-yl)methyl]amino}-acetamide], the IC50 in test [1] is greater than 2500 nM; in test [2], greater than 2500 nM; in test [3], 250 to 2500 nM; in test [4], greater than 2500 nM.

With `CCN(CCC#N)C(=O)CNCc1cc(/C=N/C2CC2)ccn1` [Compound 50, N-(2-cyanoethyl)-2-[({4-[N-cyclopropyl-carboximidoyl]-pyridin-2-yl}methyl)amino]-N-ethylacetamide], the IC50 was greater than 2500 nM in test [1], greater than 2500 nM in test [2], 250 to 2500 nM in test [3] and 250 to 2500 nM in test [4].

Turning to `CCN(CC)C(=O)CNCc1cc(C=O)ccn1` [Compound 105, N,N-diethyl-2-{[(4-formylpyridin-2-yl)methyl]amino}-acetamide], the IC50 was greater than 2500 nM in test [1], greater than 2500 nM in test [2], 250 to 2500 nM in test [3] and greater than 2500 nM in test [4].

On to `CCN(CC)CCCCNCc1cc(/C=N/CC(F)(F)C(F)(F)F)ccn1` [Compound 62, {[2-({[4-(diethylamino)-butyl]amino}methyl)pyridin-4-yl]methylidene} (2,2,3,3,3-pentafluoropropyl)-amine], for which the IC50 was greater than 2500 nM in test [1], greater than 2500 nM in test [2], less than 250 nM in test [3] and greater than 2500 nM in test [4].

As to `N#CCNCc1ccnc(CNCCCCN(Cc2ccccc2)C2CC2)c1` [Compound 23, 2-[({2-[({4-[benzyl(cyclopropyl)-amino]butyl}amino)-methyl]pyridin-4-yl}methyl)amino]-acetonitrile], the IC50 in test [1] is greater than 2500 nM; in test [2], greater than 2500 nM; in test [3] it was 250 to 2500 nM; in test [4], greater than 2500 nM.

For the molecule `CCN(CC)CCCCNCc1cc(C=O)ccn1` [Compound 107, 2-({[4-(diethylamino)-butyl]amino}-methyl)pyridine-4-carbaldehyde], the IC50 is greater than 2500 nM in test [1], greater than 2500 nM in test [2], less than 250 nM in test [3] and greater than 2500 nM in test [4].

For the molecule `CN(C)C(=O)CNCc1cc(/C=N\C2CC2)ccn1` [Compound 33], the IC50 in test [1] was greater than 2500 nM; in test [2], greater than 2500 nM; in test [3], 250 to 2500 nM; in test [4], 250 to 2500 nM.

Turning to `CC1CCCCN1CCCNCc1cc(CNC2CC2)ccn1` (centres unmarked) [Compound 11, N-{[2-({[3-(2-methylpiperidin-1-yl)propyl]amino}methyl)-pyridin-4-yl]methyl}-cyclopropanamine], the IC50 in test [1], in test [2], in test [3] and in test [4] was greater than 2500 nM in each case.

For the molecule `CCN(CCN(C)C)C(=O)CNCc1cc(/C=N/CCC2CCCCC2)ccn1` [Compound 63, 2-[({4-[[(2-cydohexylethyl)-imino]methyl]pyridin-2-yl}methyl)amino]-N-[2-(dimethylamino)-ethyl]-N-ethylacetamide], the IC50 was greater than 2500 nM in test [1], greater than 2500 nM in test [2], less than 250 nM in test [3] and 250 to 2500 nM in test [4].

Turning to `CCN(CCN(C)C)C(=O)CNCc1cc(CN)ccn1` [Compound 4, 2-({[4-(aminomethyl)pyridin-2-yl]methyl}amino)-N-[2-(dimethylamino)ethyl]-N-ethylacetamide], the IC50 is greater than 2500 nM in test [1], greater than 2500 nM in test [2], less than 250 nM in test [3] and greater than 2500 nM in test [4].

`CN(C)CCCCNCc1cc(/C=N\C2CC2)ccn1` [Compound 45, N-{[2-({[4-(dimethylamino)butyl]-amino}methyl)-pyridin-4-yl]methylidene}-cyclopropanamine]: the IC50 in test [1] was greater than 2500 nM; in test [2] it was greater than 2500 nM; in test [3], less than 250 nM; in test [4] it was greater than 2500 nM.

For `CN1CCCC1CCNCc1cc(/C=N/C2CC2)ccn1` (stereo not drawn) [Compound 40, N-{[2-({[2-(l-methylpyrrolidin-2-yl)ethyl]amino}methyl)-pyridin-4-yl]methylidene}-cyclopropanamine], the IC50 in test [1] is greater than 2500 nM; in test [2], greater than 2500 nM; in test [3], less than 250 nM; in test [4], greater than 2500 nM.

On to `CN(CCCn1cccn1)C(=O)CNCc1cc(/C=N/C2CC2)ccn1` [Compound 52, 2-[({4-[N-cyclopropyl-carboximidoyl]-pyridin-2-yl}methyl)amino]-N-methyl-N-[3-(1H-pyrazol-1-yl)propyl]acetamide], for which the IC50 in test [1] was greater than 2500 nM; in test [2], greater than 2500 nM; in test [3] it was 250 to 2500 nM; in test [4], 250 to 2500 nM.

As to `CN(C)C(=O)CNCc1cc(/C=N/CCCc2ccccc2)ccn1` [Compound 34, N,N-dimethyl-2-[({4-[[(3-phenylpropyl)imino]-methyl]pyridin-2-yl}methyl)amino]-acetamide], the IC50 was greater than 2500 nM in test [1], greater than 2500 nM in test [2], 250 to 2500 nM in test [3] and greater than 2500 nM in test [4].

Consider `O=Cc1ccnc(CNCCCN2CCCC2)c1` [Compound 111, 2-({[3-(pyrrolidin-1-yl)propyl]amino}-methyl)pyridine-4-carbaldehyde], for which the IC50 in test [1] is greater than 2500 nM; in test [2] it was greater than 2500 nM; in test [3] it was less than 250 nM; in test [4], greater than 2500 nM.

For the molecule `CCN(CC)CCCCN(Cc1cc(C=O)ccn1)C(=O)C(F)(F)F` [Compound 115, N-[4-(diethylamino)butyl]-2,2,2-trifluoro-N-[(4-formylpyridin-2-yl)methyl]acetamide], the IC50 is greater than 2500 nM in test [1], greater than 2500 nM in test [2], less than 250 nM in test [3] and greater than 2500 nM in test [4].

Turning to `CCN(CC)CCCCNC(=O)CNCc1cc(C=O)ccn1` [Compound 112, N-[4-(diethylamino)-butyl]-2-{[(4-formylpyridin-2-yl)methyl]amino}-acetamide], the IC50 in test [1], in test [2], in test [3] and in test [4] was greater than 2500 nM in each case.

On to `NCc1ccnc(CNCCCCN2CCC2)c1` [Compound 7, [2-({[4-(azetidin-1-yl)butyl]amino}methyl)-pyridin-4-yl]-methanamine], for which the IC50 in test [1] is greater than 2500 nM; in test [2], greater than 2500 nM; in test [3], less than 250 nM; in test [4], greater than 2500 nM.
